Patent US8080657B2, “Compounds of reverse turn mimetics and the use thereof” (Choongwae Pharma Corporation, priority 2008, dated 2011)

Target: T1, cDNA-expressed human hepatic CYP3A4 (Homo sapiens, UniProt P08684)
T1 construct: purchased BD Gentest 456202
Assay: P450 CYP3A4 inhibitory activity screening (BFC substrate, fluorescence)
Format: biochemical
Settings: P450 CYP3A4 inhibitory activity screening, fluorescent assay; read-out: CYP3A4 inhibition, IC50 (μM) fluorescent assay
Description: P450 CYP3A4 Inhibitory Activity Screening
Assay was conducted in a 200 μL volume in 96-well microtiter plates using cDNA-expressed human hepatic CYP3A4 (supersome, BD Gentest™ #456202). 7-Benzyloxy-4-trifluoromethyl-coumarin (BFC) was used as a substrate for CYP3A4. Test articles and substrate BFC were dissolved in 100% acetonitrile. The final volume of acetonitrile in the incubation mixture was less than 1% (volume/volume). Potassium phosphate buffer (pH 7.4, final concentration 0.1 M), MgCl2 (final concentration 8.3 mM), EDTA (final concentration 1.67 mM), a test article stock solution, a CYP3A4 supersome and NADPH (final concentration 0.25 mM) were added to each well. The reaction was initiated by the addition of substrate (BFC, final concentration 30 µM) after a 10 min pre-incubation at 37° C. After 10 min incubation at 37° C., the reaction was terminated by the addition of 75 μL of acetonitrile:0.5 M Tris-base=4:1 (volume/volume). Thereafter, Fluorescent signal was measured using a fluorometer. BFC metabolite, 7-hydroxy-4-trifluoromethyl-coumarin, was measured using an excitation wavelength of 409 nm and an emission wavelength of 530 nm.

T1 sequence (P08684 whole entry): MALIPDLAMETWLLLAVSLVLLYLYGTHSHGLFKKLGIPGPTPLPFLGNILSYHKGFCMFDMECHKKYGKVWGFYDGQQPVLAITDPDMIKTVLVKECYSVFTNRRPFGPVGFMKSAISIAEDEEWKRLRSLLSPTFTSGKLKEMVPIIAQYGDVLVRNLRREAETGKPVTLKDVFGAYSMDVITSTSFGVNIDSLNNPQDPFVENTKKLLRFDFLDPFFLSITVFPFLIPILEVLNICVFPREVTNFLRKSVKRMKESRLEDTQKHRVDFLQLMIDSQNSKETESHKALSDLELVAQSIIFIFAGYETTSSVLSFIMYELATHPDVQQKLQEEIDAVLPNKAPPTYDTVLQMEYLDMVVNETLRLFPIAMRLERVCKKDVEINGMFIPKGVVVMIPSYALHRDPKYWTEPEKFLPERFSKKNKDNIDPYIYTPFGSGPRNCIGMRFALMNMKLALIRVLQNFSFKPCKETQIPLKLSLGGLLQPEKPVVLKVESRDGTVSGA

Row | Structure (SMILES) | IC50 [µM]
1 | C=CCN1CC(=O)N2[C@@H](Cc3ccc(O)cc3)C(=O)N(Cc3cccc(NC(C)=O)c3)C[C@@H]2N1C(=O)NCc1ccccc1 [compound 28] | 17.9
2 | C#CCN1C[C@H]2N(C(=O)CN(CC=C)N2C(=O)NCc2ccccc2)[C@@H](Cc2ccc(O)cc2)C1=O [compound 29] | 18.1
3 | C=CCN1CC(=O)N2C(CN(Cc3ccccc3S(C)(=O)=O)C(=O)[C@@H]2Cc2ccc(O)cc2)N1C(=O)NCc1ccccc1 (some centres unmarked) [compound 30] | 18.7
4 | C=CCN1CC(=O)N2[C@@H](Cc3ccc(O)cc3)C(=O)N(Cc3cccc(C(=O)OCC)n3)C[C@@H]2N1C(=O)NCc1ccccc1 [compound 31] | 18.9
5 | C=CCN1CC(=O)N2[C@@H](Cc3ccc(O)cc3)C(=O)N(Cc3cccc(C(=O)NCCOC)n3)C[C@@H]2N1C(=O)NCc1ccccc1 [compound 32] | 19.9
6 | C=CCN1CC(=O)N2[C@@H](Cc3ccc(O)cc3)C(=O)N(Cc3cccc(NC(=O)OC)c3)C[C@@H]2N1C(=O)NCc1ccccc1 [compound 33] | 24.2
7 | C=CCN1CC(=O)N2[C@@H](Cc3ccc(O)cc3)C(=O)N(Cc3ccccc3S(C)(=O)=O)C[C@@H]2N1C(=O)NCc1ccccn1 [compound 34] | 24.5
8 | C=CCN1CC(=O)N2[C@@H](Cc3ccc(OS(N)(=O)=O)cc3)C(=O)N(Cc3cccc(C(=O)NC)n3)C[C@@H]2N1C(=O)NCc1ccccc1 [compound 35] | 26.4
9 | C=CCN1CC(=O)N2[C@@H](Cc3ccc(O)cc3)C(=O)N(Cc3cccc(NC(N)=O)c3)C[C@@H]2N1C(=O)NCc1ccccc1 [compound 37] | 34.3
10 | C=CCN1CC(=O)N2[C@@H](Cc3ccc(O)cc3)C(=O)N(Cc3cccc(C(=O)N(C)C)n3)C[C@@H]2N1C(=O)NCc1ccccc1 [compound 39] | 35.3
11 | CN1CC(=O)N2[C@@H](Cc3ccc(O)cc3)C(=O)N(Cc3cccc4c3ncn4C)C[C@@H]2N1C(=O)NCc1ccccc1 [compound 40] | 39.1
12 | C=CCN1CC(=O)N2[C@@H](Cc3ccc(O)cc3)C(=O)N(Cc3cccc(C(=O)NOC)c3)C[C@@H]2N1C(=O)NCc1ccccc1 [compound 41] | 41.4
13 | C=CCN1CC(=O)N2[C@@H](Cc3ccc(O)cc3)C(=O)N(Cc3cccc(C(=O)NCCO)c3)C[C@@H]2N1C(=O)NCc1ccccc1 [compound 42] | 44.1
14 | C=CCN1CC(=O)N2[C@@H](Cc3ccc(O)cc3)C(=O)N(Cc3cccc(C(N)=O)c3[N+](=O)[O-])C[C@@H]2N1C(=O)NCc1ccccc1 [compound 43] | 44.4

The next compounds have a lower IC50 than those just listed; values first:

Row | IC50 [µM] | Structure (SMILES)
15 | 16.8 | C=CCN1CC(=O)N2[C@@H](Cc3ccc(O)cc3)C(=O)N(Cc3cccc(NC(=O)NC(N)=O)c3)C[C@@H]2N1C(=O)NCc1ccccc1 [compound 27]
16 | 13.5 | C=CCN1CC(=O)N2[C@@H](Cc3ccc(O)cc3)C(=O)N(Cc3ccccc3-n3cnnn3)C[C@@H]2N1C(=O)NCc1ccccc1 [compound 26]
17 | 13.1 | C=CCN1CC(=O)N2[C@@H](Cc3ccc(O)cc3)C(=O)N(Cc3cccc(C(=O)NC)n3)C[C@@H]2N1C(=O)NCc1ccccc1 [compound 25]
18 | 12.9 | C=CCN1CC(=O)N2[C@@H](Cc3ccc(O)cc3)C(=O)N(Cc3cccc(-c4cccc(C(=O)O)c4)c3)C[C@@H]2N1C(=O)NCc1ccccc1 [compound 24]
19 | 12 | C=CCN1CC(=O)N2[C@@H](Cc3ccc(OS(N)(=O)=O)cc3)C(=O)N(Cc3cccc4c3ncn4C)C[C@@H]2N1C(=O)NCc1ccccn1 [compound 23]
20 | 11.6 | C=CCN1CC(=O)N2[C@@H](Cc3ccc(O)cc3)C(=O)N(Cc3cccc(C(=O)N(C)C)c3)C[C@@H]2N1C(=O)NCc1ccccc1 [compound 22]
21 | 10.2 | C=CCN1CC(=O)N2[C@@H](Cc3ccc(O)cc3)C(=O)N(Cc3cccc(N(C)C(=O)OC)c3)C[C@@H]2N1C(=O)NCc1ccccc1 [compound 21]
22 | 10.1 | C=CCN1CC(=O)N2[C@@H](Cc3ccc(O)cc3)C(=O)N(Cc3cccc(C(=O)N4CCOCC4)c3)C[C@@H]2N1C(=O)NCc1ccccc1 [compound 20]
23 | 9.65 | C=CCN1CC(=O)N2[C@@H](Cc3ccc(O)cc3)C(=O)N(Cc3cccc(C#N)c3)C[C@@H]2N1C(=O)NCc1ccccc1 [compound 19]
